Seven compounds from US20100267561A1, “HERBICIDAL PYRIDAZINONE DERIVATIVES” (priority 2007, published 2010) can be followed below.

The test system of assay [1] is blackgrass (Alopecurus myosuroides). Nature of the assay: Test A pre-/postemergence plant response. In kind it is in vivo. The essentials:
(§1)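 Seeds in loam soil/sand blend treated preemergence by directed soil spray, with simultaneous postemergence spray on 2–10 cm plants at one- to two-leaf stage; compounds in non-phytotoxic solvent with surfactant. Injury visually rated versus untreated controls after about 10 days in greenhouse, 0 (no effect) to 100 (complete control).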

Assay [2] deals with canarygrass (Phalaris minor). Nature of the assay: Test A pre-/postemergence plant response. In kind it is in vivo. Summed up:
as §1

[3] abbreviates: Postemergence, 31 g ai/ha, 0 to 100 scale, 0 no effect, 100 complete control.
The mark [4] stands for this setting: Postemergence, 125 g ai/ha, 0 to 100 scale, 0 no effect, 100 complete control.
[5] abbreviates: Preemergence, 125 g ai/ha, 0 to 100 scale (0 no effect, 100 complete control).
[6] abbreviates: Preemergence, 31 g ai/ha, 0 to 100 scale, 0 is no effect, 100 is complete control.
The mark [7] stands for this setting: Postemergence, 500 g ai/ha, 0 to 100 scale, 0 no effect, 100 complete control.
[8] abbreviates: Preemergence, 500 g ai/ha, 0 to 100 scale (0 no effect, 100 complete control).

For the compound `CCCc1cc(-c2ccc(Cl)cc2)nn1-c1c(O)cnn(C)c1=O` [Compound 76], the entries for the “Plant response rating, Blackgrass” value in assay [1] (setting [3]), in assay [1] (setting [4]) and in assay [1] (setting [5]) were 90, 100 and 90, respectively. Moreover, the “Plant response rating, Canarygrass” value in assay [2] (setting [3]) was 40; in assay [2] (setting [4]), 100; in assay [2] (setting [6]) it was 30; in assay [2] (setting [5]), 70.
Turning to `Cn1ncc(O)c(-c2nn(-c3ccc(C(F)(F)F)cc3)cc2Br)c1=O` [Compound 87, 4-[4-bromo-1-[4-(trifluoromethyl)phenyl]-1H-pyrazol-3-yl]-5-hydroxy-2-methyl-3(2H)-pyridazinone], the “Plant response rating, Blackgrass” value is given as 30 in assay [1] (setting [3]), 80 in assay [1] (setting [4]), 30 in assay [1] (setting [6]) and 90 in assay [1] (setting [5]). Besides, the “Plant response rating, Canarygrass” value in assay [2] (setting [3]) is reported as 10; in assay [2] (setting [4]), 70; in assay [2] (setting [6]) it was 0; in assay [2] (setting [5]) it was 90.
On to `Cc1cc(-c2ccc(Br)cc2)nn1-c1c(O)cnn(C2CCCCO2)c1=O` (stereo not drawn) [Compound 77, 4-[3-(4-bromophenyl)-5-methyl-1H-pyrazol-1-yl]-5-hydroxy-2-(tetrahydro-2H-pyran-2-yl)-3(2H)-pyridazinone], for which the “Plant response rating, Blackgrass” value is on record as 100 in assay [1] (setting [4]), 100 in assay [1] (setting [7]), 80 in assay [1] (setting [5]) and 100 in assay [1] (setting [8]). For the same compound, the entries for the “Plant response rating, Canarygrass” value in assay [2] (setting [4]), in assay [2] (setting [7]) and in assay [2] (setting [8]) were 60, 100 and 90, respectively.
On to `COc1nn(C)c(=O)c(-n2nc(-c3ccc(Br)cc3)cc2C)c1O` [Compound 82], for which the “Plant response rating, Blackgrass” value is 100 in assay [1] (setting [3]), 100 in assay [1] (setting [4]), 70 in assay [1] (setting [6]) and 100 in assay [1] (setting [5]). For the same compound, the “Plant response rating, Canarygrass” value in assay [2] (setting [3]) stood at 100; in assay [2] (setting [4]), 100; in assay [2] (setting [6]), 20; in assay [2] (setting [5]), 100.
For the compound `Cc1cn(-c2ccc(C(F)(F)F)cc2)nc1-c1c(O)cnn(C)c1=O` [Compound 85, 5-hydroxy-2-methyl-4-[4-methyl-1-[4-(trifluoromethyl)phenyl]-1H-pyrazol-3-yl]-3(2H)-pyridazinone], the “Plant response rating, Blackgrass” value in assay [1] (setting [3]) is 0; in assay [1] (setting [4]) it was 40; in assay [1] (setting [6]), 0; in assay [1] (setting [5]), 40. Moreover, the “Plant response rating, Canarygrass” value in assay [2] (setting [3]) turned out to be 0; in assay [2] (setting [4]), 20; in assay [2] (setting [6]), 40; in assay [2] (setting [5]) it was 70.
`CCc1cc(-c2ccc(Br)cc2)nn1-c1c(O)c(C)nn(C)c1=O` [Compound 74]: the “Plant response rating, Blackgrass” value in assay [1] (setting [3]), in assay [1] (setting [4]), in assay [1] (setting [6]) and in assay [1] (setting [5]) was 100 throughout. For the same compound, the “Plant response rating, Canarygrass” value is listed as 100 in assay [2] (setting [3]), 100 in assay [2] (setting [4]), 80 in assay [2] (setting [6]) and 100 in assay [2] (setting [5]).
For the compound `CCCc1cc(-c2ccc(C(F)(F)F)cc2)nn1-c1c(O)cnn(C)c1=O` [Compound 72], the “Plant response rating, Blackgrass” value in assay [1] (setting [3]) is 80; in assay [1] (setting [4]), 100; in assay [1] (setting [6]) it was 70; in assay [1] (setting [5]), 100. Also, the “Plant response rating, Canarygrass” value in assay [2] (setting [3]) is 40; in assay [2] (setting [4]), 100; in assay [2] (setting [6]), 50; in assay [2] (setting [5]) it was 80.
